System: human skin
Assay: Cumulative skin irritation patch test (safety to the human skin)
Format: in vivo
Details: 30 adults; for Number of subjects showing response ±: 1st week
Protocol: In order to identify as to whether the Cirsium japonicum extract is safe or not, a test for identifying the safety to the human skin was performed. For this, a cumulative skin irritation was carried out. A nutritious cream containing 0.1%, 0.5% and 1% of Cirsium japonicum extracts of Example 1, respectively, was prepared. Specifically, purified water, triethanolamine, and propylene glycol were heated and dissolved at a temperature of 70° C. (aqueous phase). Beeswax, liquid paraffin, oily ingredients, emulsifiers and preservatives were heated and dissolved at a temperature of 70° C. (oil phase). The oil phase was added to the aqueous phase to prepare an emulsion. After emulsification was completed, the solution was cooled to 45° C., and Cirsium japonicum extracts were added 0.1%, 0.5% and 1% respectively, dispersed and then cooled to 30° C. As the content of the Cirsium japonicum extract was increased to 0.1%, 0.5% and 1%, the nutritional cream was prepared by reducing the content of the liquid paraffin to 9.91%, 9.51% and 9.01%, respectively. The nourishing cream prepared as described above was applied as a patch to areas of humerus of 30 adults for accumulated 24 hours on alternate day in total 9 times to test as to whether the Cirsium japonicum extract stimulates the skin. The patch used Finn chamber ([…]) and the patch was practiced after dropping with […] of the skin external preparations prepared from the above, respectively. The degree of the reaction represented on the skin in every time was scored by using the below experimental formula 1. Mean reaction degree=[{(reaction index×reaction degree)/(total number of the subject×the highest score (four point))}×100]/times of the test (9times) [Experimental Formula 1] In regard to the response degree, 1 point was provided for ±, 2 points for +, and 4 points for ++. When the mean reaction degree is less than 3, it is considered as being the safe composition.

CC(C)=CCC/C(C)=C/CC/C(C)=C/CC/C=C(\C)CC/C=C(\C)CCC=C(C)C [Control group (Squalene), Squalene]
Number of subjects showing response ± (1st application): 1
Number of subjects showing response ± (2nd application): 0
Average response degree (24 h patch on alternate days, 9 times, less than 3 = safe): 0.09
